{"source": "patent US6680025B2", "about": "“Device and method for photoactivation” (Cerus Corporation, priority 1989, dated 2004)", "key": {"[1]": {"tested_on": "DNA polymerase I from E. coli. B", "details": "covalently bound compound; cited from earlier work"}, "PCR'd MACS 1555 target": {"tested_on": "PCR'd MACS 1555 target", "assay": "Inhibition of PCR by non-psoralen compounds in the absence of light", "type": "biochemical", "text": "The compounds tested were the following: 1) ethidium bromide (a Phenanthridine, see Table 1), 2) xylene cylanol (an Organic Dye, see Table 1), 3) bromphenol blue (an Organic Dye, see Table 1), 4) coumarin and 5) methylene blue (a Phenazathionium Salt, see Table 1).\nA separate experiment examined PCR inhibition with coumarin and methylene blue in the absence of light. The following concentrations of methylene blue were tried: 4.3×10^−2, 4.3×10^−3, 4.3×10^−4 and 4.3×10^−5 M. Concentrations of coumarin tried included: 7×10^−3, 7×10^−4, 7×10^−5 and 7×10^−6 M. Compound was added to PCR tube containing α-^32P-dCTP and target (1 μl […].; PCR'd MACS 1555 per assay-point). PCR was carried out for 30×cycles. Samples were loaded onto a 12%/8 M urea gel."}, "[2]": {"assay": "Solubility of photoreactive compounds in 1×TE", "type": "physicochemical", "details": "excess compound heated 50-70° C., stirred at room temperature, filtered, optical density", "experimental": "The solubilities of AMIP, AMDMIP, DMIP, MIP and isopsoralen (IP) were determined experimentally according to the scheme set forth in FIG. 5. To perform the solubility measurement, it was first necessary to establish known optical densities for a 1 μg/ml solution of each compound. These were determined by preparing either ethanolic or aqueous stocks of each compound at known concentrations in 1×TE, then measuring the optical density of each solution. From this information, the absorption of a 1 μg/ml solution was computed. Alternatively, the extinction coefficient may be thus determined and used in the same fashion. In this manner, the following absorption data was collected:\nFollowing this step, undissolved compound was removed by filtration using a 0.2 u nylon-66 syringe filter (Arco LC13; Gelman). The concentration of the remaining soluble compound was then determined by measuring the optical density of the filtrate and computing the solubility from the known optical density of a 1 μg/ml solution of that compound. The solubility of the compounds was thus determined to be as follows: […]"}, "[3]": {"details": "as reported by Dall'Acqua et al.; cited from earlier work"}, "human placental DNA": {"tested_on": "human placental DNA", "assay": "PCR in presence of AMDMIP and DMSO co-solvent", "type": "biochemical", "details": "no AMDMIP, 0% DMSO gave 139,000", "experimental": "In this example, the effect of DMSO on PCR amplification in the presence of high concentrations of sterilizing compound (AMDMIP) was investigated. Samples were prepared for PCR which contained 1 μg of human placental DNA either with or without (unirradiated) AMDMIP (200 μg/ml). The samples were amplified 30 cycles under standard PCR conditions in the presence of 0%, 1%, 5% or 10% DMSO. The reaction mix contained α-^32P-dCTP. Following amplification, the samples were analyzed by PAGE (data not shown)."}, "Taq I DNA polymerase": {"tested_on": "Taq I DNA polymerase", "assay": "Primer extension on site-specific monoadducted 71-mer, Taq polymerase", "type": "biochemical, Thermus aquaticus", "details": "55° C., single extension", "experimental": "In this experiment, monoadducted 71-mers (as well as unmodified 71-mers) were used in template-dependent enzymatic extension. AMIP, AMDMIP, and MIP 71-mer monoadducts were made as in Example 42. Extension was carried out as in Example 43 except that in this experiment, Taq I DNA polymerase, a thermostable DNA polymerase isolated from Thermus aquaticus (Stratagene, Inc., La Jolla, Calif.) was assessed for its ability to read past isopsoralens.\nThe reaction mixture was in 80 μl total volume and comprised 1×Taq buffer, 200 μM each of dNTP's, 0.05 units of Taq per μl of reaction volume; 1×10^−9 M in 71-mer MA; 1×10^−8 M in ^32P-labelled SK-39. Each reaction was set up with everything except Taq polymerase. The samples were initially heated to 95° C. for 5 mins, then incubated at 55° C. for 3 mins. The extension reaction was initiated by addition of Tas polymerase. At the indicated time points (0.5, 1.0, 5.0 mins), 20 μl of the reaction mix was removed to a tube containing 1 μl of 0.5 M EDTA to stop the reaction. All products were analyzed on a 20% polyacrylamide, 7 M urea gel followed by autoradiography.\nThis experiment investigated whether blocking of Tag polymerase by monoadducts is complete or whether monoadducts can be bypassed by the enzyme. In order to view the process of bypass syrthesis, it is necessary to cycle the extension reaction of the primer with the 71-mer templates. Cycling in this case consists of mixing the primer with the 71-mer template, adding Taq polymerase and appropriate reagents, extending, heating to induce strand separation, reannealing of the primer to the 71-mer template, extending again, and subsequent stand separation. This process can be repeated as necessary. During this process, only the complement of the 71-mer template is being synthesized. It is accumulating in a linear fashion with the number of thermal cycles (in contrast to PCR where both strands are being synthesized and accumulate geometrically).\nThe templates and reaction conditions were as in Example 44 above except that three samples were used for each monoadduct and each sample was tested under different conditions:\nSamples (1): one sample for each monoadduct was used to carry out extension at 55° C. as in Example 43;\nSamples (2): one sample for each monoadduct was used to carry out extension by the following series of steps: denaturing at 95° C.; incubating for 30 seconds at 55° C.; adding Taq polymerase for 3 minutes at 55° C.; cooling the reaction for 1 minute at 7° C.; stopping the reaction with EDTA for one minute at 95° C.\nSamples (3): one sample for each monoadduct was used to carry out extension by repeating the following series of steps nine times: denaturing at 95° C.; incubating for 30 seconds at 55° C.; adding Taq polymerase for 3 minutes at 55° C.; cooling the reaction for 1 minute at 7° C. At the end, the reaction is stopped with EDTA for one minute at 95° C.\nTo investigate this question further, a new 5-MIP monoadducted 71-mer was prepared by repurification of the HPLC purified 5-MIP ronoadducted 15-mer by PAGE. In this way, more of the non-monoadducted 15-mer was removed prior to ligation. The purified 71-mer was then used as template in an extension experiment as described in Example 45. After 10 cycles, there was still evidence of extension product (FIG. 34).\nMonoadducted 71-mer was constructed as described, but for HMT. Extension was carried out and analyzed as before on PAGE. […] Full length 71-mer is not made and a shorter strand corresponding to the position of the HMT adduct was made."}, "E. coli polymerase I": {"tested_on": "E. coli polymerase I", "details": "cited from earlier work"}, "Taq polymerase": {"biological_target": "Taq polymerase (Thermus aquaticus, UniProt P19821)", "sequence (P19821 whole entry)": "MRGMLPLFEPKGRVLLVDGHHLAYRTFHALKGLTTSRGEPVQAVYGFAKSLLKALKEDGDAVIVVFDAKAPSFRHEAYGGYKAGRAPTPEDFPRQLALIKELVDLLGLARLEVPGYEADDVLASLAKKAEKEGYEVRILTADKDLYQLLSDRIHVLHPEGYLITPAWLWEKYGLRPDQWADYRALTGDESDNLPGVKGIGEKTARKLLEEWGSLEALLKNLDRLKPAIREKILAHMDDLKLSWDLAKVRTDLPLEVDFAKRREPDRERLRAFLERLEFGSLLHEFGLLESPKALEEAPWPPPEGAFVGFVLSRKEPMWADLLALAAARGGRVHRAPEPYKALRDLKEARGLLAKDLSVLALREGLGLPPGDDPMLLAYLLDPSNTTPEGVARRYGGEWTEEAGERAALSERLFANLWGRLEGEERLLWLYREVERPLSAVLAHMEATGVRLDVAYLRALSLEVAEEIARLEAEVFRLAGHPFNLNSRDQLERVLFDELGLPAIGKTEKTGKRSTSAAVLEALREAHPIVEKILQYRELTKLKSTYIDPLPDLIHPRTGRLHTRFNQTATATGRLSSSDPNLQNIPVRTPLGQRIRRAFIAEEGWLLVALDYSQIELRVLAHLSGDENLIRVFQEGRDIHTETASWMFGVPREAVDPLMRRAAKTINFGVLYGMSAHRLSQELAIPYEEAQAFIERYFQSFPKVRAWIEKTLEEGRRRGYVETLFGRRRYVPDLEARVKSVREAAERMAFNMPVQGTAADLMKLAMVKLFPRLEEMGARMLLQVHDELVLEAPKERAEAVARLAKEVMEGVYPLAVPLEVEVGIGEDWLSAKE", "assay": "Taq primer extension of 71-mer after random addition of compound or photoproduct", "type": "biochemical", "details": "photobiotin 6×10^−6 M", "text": "In this experiment, the ability of AMIP, AMDMIP and MIF to block replication of 71-mer is investigated by randomly adding each compound to the 71-mer. Of course, addition may only be random in the sense that one or more adducts may be formed with any one strand of nucleic acid. The actual placement of the isopsoralen may be governed by preferential binding at particular sites (e.g. A:T). In addition to blockage by random adducts, photoproducts of the various isopsoralens may be providing an inhibitory effect. No attempt to separate the effects of photoproduct from the effects of covalent adducts on the 71-mer template was made in this series of experiments.\nIn these experiments, the 71-mer template (10^−9 M) was primed with ^32P-SK-39 (10^−8) and extended with Taq polymerase in a total volume of […]. The dNTP concentration was 200 μM. In the control samples, the 71-mer, the primer, and the dNTPs were mixed in Taq buffer in a volume of 18 p1. These samples were initially denatured at 95° C. for 5 minutes, followed by equilibration at 55° C. for 3 minutes. Taq enzyme was then added (0.5 units) and the extension reaction was carried out for 5 minutes at 55° C. The reaction was stopped by making the solution 10 mM in EDTA. In another set of samples, the 71-mer in 10 μl was mixed with either AMIP (200 μg/ml), AMDMIP (200 μg/ml), or MIP (60 μg/ml). Half of these samples were irradiated for 15 minutes on the CE-I device at 25° C. The other half was kept in the dark as controls. These samples were then mixed with the primer and dNTPs as before, and were subjected to the same thermal profile and extension reactions as the samples that were described earlier. The results were examined by PAGE. The extended product bands were identified by autoradiography, excised and counted (data not shown). […]\n71-mer was made up in Taq buffer. Samples were prepared as follows: 1) dark control samples were not subjected to activating light; 2) 10 μl samples of the 71-mer (2×10^−9 M) were irradiated in the presence of 200 μg/ml AMDMIP, and 3) 10 μl samples of a 200 μg/ml solution of AMDMIP were irradiated in the absence of the 71-mer target. All irradiations were carried out with the CE-I device at 25° C. After preparing the above samples, unirradiated AMDMIP was added to one set of the dark control samples. Another set of dark controls received irradiated AMDMIP. ^32P-SK-39 primer and dNTPs were then added to all samples and the volume was adjusted to 18 μl. These samples were denatured at 95° C. for 5 minutes, followed by equilibration at 55° C. for 3 minutes. Taq polymerase was then added and the extension reaction was carried out for 5 minutes. The reaction was stopped by bringing the samples to 10 mM in EDTA. The final concentrations of all reagents during the extension reactions were: […]"}, "HIV 115-mer": {"tested_on": "HIV 115-mer", "assay": "PCR with pre-irradiated photobiotin or monoazide ethidium chloride", "type": "biochemical", "experimental": "In this experiment, photobiotin and monoazide ethidium chloride were tested as PCR sterilization reagents. The temporal steps were performed to examine photoproduct effects (if any). Solutions of photobiotin and monoazide ethidium chloride were made up in 1×Taq buffer. […] Each compound solution was divided into two parts: One part was irradiated under a GE sunlamp through a pyrex filter (300nm cut-off); the other half was irradiated under a GE sunlamp through a 2.9 M NaNO2 liquid filter (400 nm cut-off). Irradiations were carried out on ice for 15 minutes. After irradiation, aliquots of each tube were carried over into tubes containing PCR reagents and target (HIV 115-mer); PCR was then carried out for 30 cycles in the presence of α-^32P-dCTP. After amplification aliquots were analyzed on 12% acrylamide/8M urea gels."}}, "data": [{"smiles": "COc1c2occc2cc2ccc(=O)oc12", "note": "[Compound 8-MOP, 8-methoxypsoralen]", "values": [{"measurement": "loss of template activity of modified DNA", "setting": "[1]", "result": 97, "unit": "%"}]}, {"smiles": "O=c1ccc2ccccc2o1", "note": "[Coumarin, coumarin]", "values": [{"measurement": "inhibition of PCR in the absence of light", "setting": "PCR'd MACS 1555 target; dark control, coumarin 7×10^−3 to 7×10^−6 M", "result": "did not inhibit PCR at any of the concentrations tested"}]}, {"smiles": "COc1cc(OC)c2ccc(=O)oc2c1", "note": "[DMC, 5,7-dimethoxycoumarin]", "values": [{"measurement": "loss of template activity of modified DNA", "setting": "[1]", "result": 50, "unit": "%"}]}, {"smiles": "Cc1cc2c(ccc3c(C)cc(=O)oc32)o1", "note": "[DMIP, 4,5′-Dimethylisopsoralen]", "values": [{"measurement": "Solubility in 1 × TE", "setting": "[2]", "result": "nd** (nd = not detectable (solubility was less than 1 μg/ml))"}, {"measurement": "maximum aqueous solubility", "setting": "[3]", "result": 8, "unit": "µg/mL"}]}, {"smiles": "C[S+](C)[O-]", "note": "[DMSO, dimethyl sulfoxide]", "values": [{"measurement": "product band CPM (average of duplicate samples)", "setting": "human placental DNA; 1% DMSO", "result": "137,000 CPM"}, {"measurement": "product band CPM (average of duplicate samples)", "setting": "human placental DNA; 5% DMSO", "result": "94,000 CPM"}, {"measurement": "product band CPM (average of duplicate samples)", "setting": "human placental DNA; 10% DMSO", "result": "76,000 CPM"}]}, {"smiles": "Cc1oc2c(C)c3oc(=O)cc(C)c3cc2c1CO", "note": "[HMT, 4′-hydroxymethyl-4,5′,8-trimethylpsoralen]", "values": [{"measurement": "Taq polymerase extension on 71-mer monoadduct template", "setting": "Taq I DNA polymerase", "result": "stop Tag polymerase"}, {"measurement": "inhibition of polymerase by covalently bound monoadducts", "setting": "E. coli polymerase I; nick-translating a double-stranded template", "result": "not inhibited"}, {"measurement": "inhibition of polymerase by monoadducts", "setting": "E. coli polymerase I; single-stranded bacteriophage DNA template", "result": "inhibited"}]}, {"smiles": "O=c1ccc2ccc3occc3c2o1", "note": "[IP, isopsoralen, reference compound]", "values": [{"measurement": "solubility", "setting": "[2]; 1×TE buffer, aqueous buffer, thermodynamic from solid", "result": 2, "unit": "µg/mL"}]}, {"smiles": "CN(C)c1ccc2nc3ccc(=[N+](C)C)cc-3sc2c1", "note": "[methylene blue]", "values": [{"measurement": "concentrations that inhibited PCR in the absence of light", "setting": "PCR'd MACS 1555 target; tested 4.3×10^−2 to 4.3×10^−5 M, 30 cycles", "result": "above 4.3×10^−5 M"}]}, {"smiles": "CC[n+]1c(-c2ccccc2)c2cc(N=[N+]=[N-])ccc2c2ccc(N)cc21", "note": "[monoazide ethidium chloride, reference compound]", "values": [{"measurement": "extension of 71-mer, dark control", "setting": "Taq polymerase; monoazide ethidium 1.4×10^−3 M, kept in the dark", "result": "inhibition of extension"}, {"measurement": "inhibition of PCR by pre-irradiated compound", "setting": "HIV 115-mer; 3×10^−6 M to 3×10^−10 M, GE sunlamp 15 minutes on ice, 30 cycles", "result": "does not inhibit PCR"}]}, {"smiles": "CN(CCCNC(=O)CCCC[C@@H]1SC[C@@H]2NC(=O)N[C@@H]21)CCCNc1ccc(N=[N+]=[N-])cc1[N+](=O)[O-]", "note": "[photobiotin, reference compound]", "values": [{"measurement": "extension of 71-mer after irradiation with compound", "setting": "Taq polymerase; GE sunlamp 15 minutes on ice", "result": "inhibition only after irradiation"}, {"measurement": "concentration of pre-irradiated compound that shut down PCR", "setting": "HIV 115-mer; range 7×10^−4 M to 7×10^−10 M, 115-mer amplified at all lower concentrations", "result": 700, "unit": "µM"}]}]}
